Experiments:
[1] = biological target: T1, GPNMB (Homo sapiens, UniProt Q14956); assay: ELISA of hybridoma supernatants for binding to GPNMB
T1 construct: we cloned the human CG56972 extracellular domain (ECD; aa 23-480); made in house; host or cells: HEK 293 cells
T1 sequence (Q14956 23-492): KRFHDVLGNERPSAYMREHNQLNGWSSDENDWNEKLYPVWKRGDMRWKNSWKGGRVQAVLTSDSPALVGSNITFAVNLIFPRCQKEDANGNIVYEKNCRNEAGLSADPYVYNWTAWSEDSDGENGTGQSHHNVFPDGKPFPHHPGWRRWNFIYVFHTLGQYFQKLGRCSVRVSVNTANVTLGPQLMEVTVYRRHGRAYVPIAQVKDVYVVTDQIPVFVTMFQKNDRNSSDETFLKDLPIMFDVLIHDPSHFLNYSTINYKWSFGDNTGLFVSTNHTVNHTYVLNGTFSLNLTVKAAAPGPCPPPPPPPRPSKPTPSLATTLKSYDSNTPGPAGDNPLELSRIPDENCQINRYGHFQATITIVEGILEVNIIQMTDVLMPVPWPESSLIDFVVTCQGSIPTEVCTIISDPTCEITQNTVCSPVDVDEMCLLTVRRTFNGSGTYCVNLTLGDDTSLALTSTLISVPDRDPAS
Description: After 14 days of culture, hybridoma supernatants were screened for GPNMB specific monoclonal antibodies. In the Primary screen, the ELISA plates (Fisher, Cat. No. 12-565-136) were coated with 50 μL/well of GPNMB (1 μg/mL) in Coating Buffer (0.1 M Carbonate Buffer, pH 9.6, NaHCO3 8.4 g/L), then incubated at 4° C. overnight. After incubation, the plates were washed with Washing Buffer (0.05% Tween 20 in PBS) three times. 200 μL/well Blocking Buffer (0.5% BSA, 0.1% Tween 20, 0.01% Thimerosal in 1×PBS) were added and the plates were incubated at room temperature for 1 h. After incubation, the plates were washed with Washing Buffer three times. Aliquots (50 μL/well) of hybridoma supernatants and positive and negative controls were added, and the plates were incubated at room temperature for 2 h. The positive control used throughout was serum from the relevant GPNMB immunized XenoMouse® mouse and the negative control was serum from the KLH-immunized relevant strain of XenoMouse® mouse. After incubation, the plates were washed three times with Washing Buffer. 100 μL/well of detection antibody goat anti-huIgGfc-HRP (Caltag, Cat. No. H10507, using concentration was 1:2000 dilution) was added and the plates were incubated at room temperature for 1 hour. After incubation, the plates were washed three times with Washing Buffer. 100 μl/well of TMB (BioFX Lab. Cat. No. TMSK-0100-01) was added, and the plates were allowed to develop for about 10 minutes (until negative control wells barely started to show color). 50 μl/well stop solution (TMB Stop Solution (BioFX Lab. Cat. No. STPR-0100-01) was then added and the plates were read on an ELISA plate reader at a wavelength of 450 nm.
Hybridoma supernatants were screened for binding to GPNMB by ELISA as described above in Example 2.

[2] = system: TK-10 control cells; assay: Apoptosis analysis (Annexin V-FITC / PI); format: cell-based, human; conditions: TK-10, 48 hour, 1000 ng/mL
Description: (§1) Briefly, cells were pulsed at the indicated times with 30 μM of bromodeoxyuridine (BrdU, Sigma) for 30 min, harvested, fixed and permeabilized in methanol. Nascent DNA synthesis was detected by anti-bromodeoxyuridine-FITC (BD Biosciences, San Jose, Calif.) staining. Total DNA content was detected using propidium iodide (PI, Sigma). For apoptosis analysis, cells were treated as above and labeled with Annexin V-FITC followed by propidium iodide exclusion using the Annexin V-FITC Apoptosis Detection kit I (BD PharMingen, San Diego, Calif.) according to the manufacturer's protocols. Flow cytometry (as described in the previous Example) was used to assay both cell cycle and apoptosis studies.
(§2) To investigate this possibility, analysis of apoptosis using Annexin-V surface binding and loss of propidium iodide (PI) exclusion was performed.

[3] = system: SK-Mel-2 cells; assay: Apoptosis analysis (Annexin V-FITC / PI); format: cell-based, human; conditions: SK-Mel-2, 48 hour, 1000 ng/mL
Description: as §1, §2

[4] = system: SK-MEL-5 human melanoma xenograft; assay: SK-MEL-5 human melanoma xenograft in athymic mice; format: in vivo
Description: The tumor inhibitory activity of the CR011-MMAE immunoconjugate was measured in an anti-tumor xenograft model using athymic mice, according to published methods (see Geran et al., Cancer Chemother. Rep. 3:1-104 (1972)). […] When tumors became established (10-20 days), the animals were pair-matched into groups (n=6 mice/group), and treatment was administered by intravenous injection (tail vein).
The SK-MEL-2 human melanoma (ATCC #HTB-68) was derived from a metastatic site (skin of thigh) of a person with malignant melanoma, and the SK− MEL-5 human melanoma (ATCC #HTB-70) was derived from a metastatic site (axillary lymph node) of a person with malignant melanoma (see Fogh et al., J. Natl. Cancer Inst. 59: 221-226 (1977)). Both cell lines were obtained from the American Type Culture Collection.
The effects of treatment were monitored by repetitive tumor measurements across 2 diameters with Vernier calipers; tumor size (in mg) was calculated using a standard formula, (W^2×L)/2, assuming a specific gravity of 1.0. Tumor size and body weights were assessed twice weekly. Mice were examined daily, however, and moribund animals were humanely euthanized if clinical indications of excessive pain or distress were noted (i.e., prostration, hunched posture, paralysis/paresis, distended abdomen, ulcerations, abscesses, seizures, and/or hemorrhages) Animals with tumors exceeding 2,000 mg were removed from the study and euthanized humanely.
Soon after the commencement of treatment with paclitaxel, however, significant tumor growth inhibition was observed (P≦0.039) at day 3 after treatment began, and this anti-tumor effect continued, producing 100% growth inhibition (stasis). The responses of SK-MEL-5-bearing test animals to vinblastine and paclitaxel were short-lived. After cessation of treatment at the maximally tolerated doses, tumors resumed rapid, progressive growth.

[5] = system: CCRF-CEM; assay: Clonogenic assay (methylcellulose) with 1.15.1-AE; format: cell-based, human
Description: (§3) Lymphoma or leukemia cell lines were mixed with methylcellulose base media (R&D Systems, USA) and in various concentrations of unconjugated and Auristatin E-conjugated 1.15.1 antibody before plating onto 6-well tissue culture plates (Becton Dickinson, Franklin Lakes, N.J., USA). […] Plates were incubated at 37° C. and examined daily. On days 14-18, colonies on the plates were counted.

[6] = system: PL-21; assay: Clonogenic assay (methylcellulose) with 1.15.1-AE; format: cell-based, human
Description: as §3

Row | Substance | Avg OD ([1]; antibody at 12.3 ng/mL) | Avg OD ([1]; antibody at 37 ng/mL) | Avg OD ([1]; antibody at 111 ng/mL) | Avg OD ([1]; antibody at 333 ng/mL) | Avg OD ([1]; antibody at 1 μg/mL) | Avg OD ([1]; antibody at 3 μg/mL) | % AnnV+/PI+ UR [2] | % AnnV+/PI− LR [2] | % AnnV−/PI+ UL [2] | % AnnV+/PI+ UR [3] | % AnnV+/PI− LR [3] | % AnnV−/PI+ UL [3] | earliest significant anti-tumor effects, time after treatment began ([4]; 10 mg/kg/treatment, compared to PBS-treated controls (P=0.039)) | doses at which complete regressions occurred ([4]; i.v., q4d×4) | anti-tumor effect (in words) ([4]; i.v., CR011-vcMMAE 1.25 to 20 mg/kg q4d×4, vinblastine […] q4d×4) | toxicity (mortality, body weight or weight gain) ([4]; mouse, in vivo) | Clonogenic Assay with 1.15.1-AE IC50 in ng/mL [5] | Clonogenic Assay with 1.15.1-AE IC50 in ng/mL [6]
1 | CR011: fully human monoclonal antibody that specifically binds to GPNMB; VH SEQ ID NO: 20, VL SEQ ID NO: 29 | 0.168 | 0.381 | 0.701 | 0.902 | 1.051 | 1.159 | 0.34% | 0.55% | 0.83% | 0.45% | 4.74% | 0.36% |  |  |  |  |  | 
2 | CR011-vcMMAE: CR011 conjugated to monomethyl auristatin E through a protease cleavable valine-citrulline linker; approx. 4 drugs per antibody |  |  |  |  |  |  |  |  |  |  |  |  | 10 days | ≥ 2.5 mg/kg | Substantial tumor growth inhibition, as well as tumor growth delay and complete regressions | no indication of toxicity | No growth | No effect

From US20130244255A1, “ANTIBODIES DIRECTED TO GPNMB AND USES THEREOF” (priority 2006, published 2013)
